Here are results for one compound from patent US20170275287A1, “NOVEL N2, N4, N7, 6-TETRASUBSTITUTED PTERIDINE-2,4,7-TRIAMINE AND 2, 4, 6, 7-TETRASUBSTITUTED PTERIDINE COMPOUNDS AND METHODS OF SYNTHESIS AND USE THEREOF” (Janus Biotherapeutics, Inc., priority 2014, published 2017).

Like-named read-outs stand apart in the source and are kept apart here. A value given as a limit tells only on which side of the number the result lay.

For data set [1], the target named is COMT (catechol-O-methyl transferase) (Sus scrofa, UniProt D3K5L3). Put plainly: Receptor cross-reactivity enzyme panel (CEREP). The note with it: read-out: % Ligand Inhibition, COMT. The class given is biochemical. The source says:
(§1) The receptor cross-reactivity profile is composed of 71 binding and 27 enzyme assays. The binding assay panel is broadly defined with roughly an equal number of selective, central and peripheral therapeutically relevant targets. The enzyme assay panel includes the most representative targets from diverse enzyme families with a particular focus on phosphatases and specific enzymes involved in cell cycle regulation. Assays where performed by CEREP, Seattle, Wash., with protocols similar to Cordeaux, Y. et al., 2004 Brit. J. Pharmacol., 143:705-714. JB6121 was tested for receptor cross reactivity at 10 μM for approximately 100 receptors and enzymes. Any % inhibition greater than 50% (IC50<10 μM) is highlighted below in Table 7.

The test system of data set [2] is M (non-selective) Muscarinic Receptor. Put plainly: Receptor cross-reactivity binding panel (CEREP).
Description: as §1

Data set [3] is described as follows: Pharmacokinetic study in rats, IV and PO, whole blood (Charles River). The format is in vivo, Sprague-Dawley rats. As for the experimental part:
A pharmacokinetic study was performed by Charles River Wilmington Mass., in rats and the doses where 2 mg/kg IV and 10 mg/kg PO and whole blood levels were measured for 72 h. The calculated pharmacokinetic parameters for 24 h are given below in Table 8.
Six (6) male Sprague-Dawley rats were selected from the Testing Facility's rodent colony. The animals were enrolled in the study based on acceptable health as determined by a Testing Facility veterinarian and based on patency of femoral and jugular vein catheters. Fasting was performed for at least 16 hours prior to dosing. Food was also withheld until after the 4 hour time point collection. The animals were placed into 2 groups of 3 animals per group. Each animal in Group 1 received prepared JB6121 by intravenous dose administration at a target dose level of 2 mg/kg and at a dose volume of 1 mL/kg. Immediately following intravenous dosing, the inter-dwelling catheter was flushed with 0.5 mL of saline. Each animal in Group 2 received prepared JB6121 by oral gavage dose administration at a target dose level of 10 mg/kg and at a dose volume of 10 mL/kg.
Whole blood samples (0.300 mL; K2EDTA anticoagulant) were collected from each animal through a jugular vein catheter. Whole blood samples were collected from all animals at 30 minutes and at 1, 2, 4, 6, 12, 24, 48, and 72 hours after dose administration.
Whole blood samples were transferred to the Charle River Bioanalytical Sciences Laboratory, Wilmington Mass., for analysis. Pharmacokinetic parameters were estimated using Watson pharmacokinetic software (Version No. 7.2) using a non-compartmental approach consistent with the IV or PO route of administration.

Data set [4] is described as follows: 7-day non-GLP tox study, once daily oral gavage. The note with it: for no-observed-effect level (NOEL): rats, 7 days oral. The format is in vivo, rats. As for the experimental part:
A 7-day non-GLP tox study was performed in rats. Dosing was once daily by oral gavage. There were four dose groups; 0, 10, 30 and 100 mg/kg. The following parameters and end points were evaluated in this study: clinical signs, body weights, body weight changes, food consumption, clinical pathology parameters (hematology, coagulation, clinical chemistry, and urinalysis), toxicokinetic parameters, gross necropsy findings, organ weights, and histopathologic examinations.

Data set [5] in a line: Metabolic stability, human liver microsomes (CEREP). The class given is in vitro ADME. As for the experimental part:
(§2) Preliminary screening measures were conducted by CEREP. All values fall within acceptable limits (Table 5). Solubility assays where performed by CEREP, Seattle, Wash., according to Lipinski, C. A. et al., 1997, Adv. Drug Del. Rev., 46:3-26. Protein binding assays where performed by CEREP, Seattle, Wash., according to Banker, M. J. et al., 2003, J. Pharm. Sci., 92:967-974. Permeability assays where performed by CEREP, Seattle, Wash. according to Hildalgo, I. J., 1998, Gastroenterology, 96:736-749. Metabolic stability assays where performed by CEREP, Seattle, Wash., according to Obach, R. S. et al., 1997, J. Pharmacol. Exp. Ther., 283:46-58. P-glycoprotein inhibition assays where performed by CEREP, Seattle, Wash., according to Polli, J. W. et al., 2001, J. Pharm. Exp. Ther., 299:620-628. Cell viability assays where performed by CEREP, Seattle, Wash., according to Mosmann, T., 1983, J. Immunol. Met. 65:55-62. hERG automated patch clamp assays where performed by CEREP, Seattle, Wash., according to Mathes, C., 2006, Expert Opin. Ther. Targets, 10:230-241.
(Liver microsomes are a subcellular fraction often used to study metabolism.)

The next data set has as its target T1, P-glycoprotein (Homo sapiens, UniProt P08183).
T1 construct: CEREP (contract laboratory)
Put plainly: P-glycoprotein inhibition (CEREP). The format is in vitro ADME. As for the experimental part:
as §2

The mark [6] stands for this setting: male, Sprague-Dawley, whole blood, Rat, PO 10.0 mg/kg.

T1 sequence (P08183 whole entry): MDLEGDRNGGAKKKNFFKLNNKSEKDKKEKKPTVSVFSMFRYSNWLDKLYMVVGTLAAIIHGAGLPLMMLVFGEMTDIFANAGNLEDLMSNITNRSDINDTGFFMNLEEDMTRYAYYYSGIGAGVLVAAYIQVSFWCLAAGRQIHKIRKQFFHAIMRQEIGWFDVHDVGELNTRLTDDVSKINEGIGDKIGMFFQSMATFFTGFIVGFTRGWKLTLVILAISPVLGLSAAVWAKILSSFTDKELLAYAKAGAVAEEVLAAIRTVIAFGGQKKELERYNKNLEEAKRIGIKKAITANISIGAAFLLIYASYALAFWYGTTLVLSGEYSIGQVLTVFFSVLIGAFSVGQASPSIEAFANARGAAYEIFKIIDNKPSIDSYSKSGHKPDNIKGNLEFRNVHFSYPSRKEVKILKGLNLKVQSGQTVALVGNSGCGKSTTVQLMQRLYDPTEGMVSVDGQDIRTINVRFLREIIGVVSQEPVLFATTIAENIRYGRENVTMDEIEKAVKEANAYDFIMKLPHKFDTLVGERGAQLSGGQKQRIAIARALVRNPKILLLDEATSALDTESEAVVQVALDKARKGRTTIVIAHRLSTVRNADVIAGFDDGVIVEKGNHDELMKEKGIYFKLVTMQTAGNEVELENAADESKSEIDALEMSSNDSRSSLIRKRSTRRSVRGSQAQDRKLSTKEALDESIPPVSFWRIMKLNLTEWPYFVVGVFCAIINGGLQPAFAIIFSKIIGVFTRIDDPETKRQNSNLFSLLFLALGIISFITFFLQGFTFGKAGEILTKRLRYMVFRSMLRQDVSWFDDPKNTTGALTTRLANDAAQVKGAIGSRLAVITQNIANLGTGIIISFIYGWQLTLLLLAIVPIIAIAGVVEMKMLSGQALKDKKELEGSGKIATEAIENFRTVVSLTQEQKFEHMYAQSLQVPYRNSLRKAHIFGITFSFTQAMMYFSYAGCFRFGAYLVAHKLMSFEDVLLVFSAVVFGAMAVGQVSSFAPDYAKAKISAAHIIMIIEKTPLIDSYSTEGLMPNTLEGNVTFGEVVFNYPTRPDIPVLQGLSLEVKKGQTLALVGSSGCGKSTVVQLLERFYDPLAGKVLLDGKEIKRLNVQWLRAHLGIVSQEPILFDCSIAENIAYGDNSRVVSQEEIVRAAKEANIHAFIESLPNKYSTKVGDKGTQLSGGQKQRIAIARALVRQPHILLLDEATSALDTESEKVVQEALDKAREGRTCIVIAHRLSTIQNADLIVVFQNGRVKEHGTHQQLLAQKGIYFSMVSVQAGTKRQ
Sequence of COMT (catechol-O-methyl transferase) (D3K5L3 entry or part of it): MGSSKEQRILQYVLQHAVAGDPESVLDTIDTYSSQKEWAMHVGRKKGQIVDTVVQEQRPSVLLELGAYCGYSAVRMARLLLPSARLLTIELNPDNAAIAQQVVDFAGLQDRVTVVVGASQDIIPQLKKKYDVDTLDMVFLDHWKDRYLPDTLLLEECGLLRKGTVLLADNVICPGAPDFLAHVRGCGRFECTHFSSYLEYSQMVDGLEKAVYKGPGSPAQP

The inhibition is the relative decrease from the control value, in per cent. The term IC50 denotes the concentration that inhibits the measured activity by half. Usually AUC stands for concentration integrated over time. A word on the bioavailability: it is the share of a dose that reaches the circulation, judged against a reference dose that is usually intravenous. The Cmax is the maximum level reached in the sampled fluid or tissue. A word on the Tmax: it is the time at which the peak concentration occurs. For orientation: NOAEL means the highest tested level that showed no adverse finding. On to `CN1CCN(c2nc(NCCN3CCOCC3)c3nc(Cl)c(NCCN4CCOCC4)nc3n2)CC1` [JB6121, 6-chloro-2-(4-methylpiperazin-1-yl)-N^4,N^7-bis(2-morpholinoethyl)pteridine-4,7-diamine], for which the inhibition at 10 µM in data set [1] was 53.5%. Besides, in data set [2] (10 μM), the “% Ligand Inhibition, M (non-selective) Muscarinic Receptor” value was 63.1%. Besides, the IC50 in data set [2] (most-likely, estimated from 10 μM result) is over 5 µM. Also, the AUC in data set [3] (male, Sprague-Dawley, rat, whole blood, iv, 2 mg/kg, Rat, IV 2.0 mg/kg, read-out: AUC) worked out at 2040 ng·h/mL; in data set [3] (male, Sprague-Dawley, rat, whole blood, iv, 2 mg/kg, Rat, IV 2.0 mg/kg, read-out: AUC Extrap), 2230 ng·h/mL; in data set [3] (male, Sprague-Dawley, rat, whole blood, po, 10 mg/kg, Rat, PO 10.0 mg/kg, read-out: AUC), 2100 ng·h/mL; in data set [3] (male, Sprague-Dawley, rat, whole blood, po, 10 mg/kg, Rat, PO 10.0 mg/kg, read-out: AUC Extrap), 2310 ng·h/mL. The bioavailability was over 20% in data set [3] (male, Sprague-Dawley, rat, whole blood, oral, 10 mg/kg, summary statement, read-out: in vivo bioavailability) and 20.6% in data set [3] (male, Sprague-Dawley, whole blood, Rat, PO 10.0 mg/kg, read-out: Bioavailability). This compound also displayed a clearance in data set [3] (male, Sprague-Dawley, whole blood, Rat, IV 2.0 mg/kg) of 16.4 mL/min/kg. Besides, in data set [3] (male, Sprague-Dawley, whole blood, Rat, IV 2.0 mg/kg, read-out: Vdss), the Vd turned out to be 21.6 L/kg. The peak level in data set [3] (setting [6]) (Cmax) was 149 ng/mL. In addition, the Tmax in data set [3] (setting [6]) came out at 3.33 h. Moreover, the half-life in data set [3] (male, Sprague-Dawley, Rat, IV 2.0 mg/kg, whole blood, 24 h, read-out: T½ (converted)) is 9.71 h. Also, the “clinically relevant abnormalities during dosing and sampling” value in data set [3] (rats, 2 mg/kg IV and 10 mg/kg PO) is “no abnormalities were noted”. For the same compound, the NOAEL at 7 days in data set [4] (both sexes, rat, in vivo, po) amounted to 100 mg/kg/day. In addition, the “hematopoiesis (spleen)” value in data set [4] (rat, in vivo, 30 mg/kg/day) is “increased incidence of hematopoiesis”. The “increase of mean spleen weights” value in data set [4] (rat, in vivo, 30 mg/kg/day) is on record as “at least 10%”. In addition, the “hematopoiesis in the liver” value in data set [4] (rat, in vivo, 100 mg/kg/day) was “slight increase in hematopoiesis”. For the same compound, the “no-observed-effect level (NOEL)” value stood at 100 mg/kg/day in data set [4] (females) and 10 mg/kg/day in data set [4] (males). Further, the “Metabolic Stability, Human Liver Microsomes at 60 min. % remaining” value in data set [5] was 75%. For the same compound, 100 µM produced 1% inhibition against P-glycoprotein.
